Reference: patent publication US20060035295A1, “Method for determination of thymidine kinase 1 activity and the use thereof” (priority 2002, published 2006)
Entries after “also recorded” stand apart in the source; their conditions may differ.

Assays:
[1] = test system: chicken anti-AZTMP antibodies; assay: Competitive assay for anti-AZTMP antibody specificity (AZXMP hapten coated plates); assay type: binding; conditions: increasing amounts of competitor added to anti-AZTMP antibody solution; FIG. 2
Procedure: FIG. 2 Anti-AZTMP antibody specificity. Dose response curve for the competitive assay, according to example 1, between free AZTMP (left curve, denoted AZTMP) or AZT (right curve, denoted AZT) and Immobilised hapten, AZXMP (see FIG. 1) illustrating the specificity of chicken anti-AZTMP antibodies. Y-axis: original absorbance values (B) are normalised against values obtained in the absence of competitor (B0) to obtain (B/B0).
Antibody specificity and titre were evaluated using the competitive assay format described in example 4. To evaluate non-specific binding the antibody was substituted with diluent. Antibody specificity and titre was also evaluated using an assay whereby AZXMP hapten was coated to plates. AZXMP was conjugated to BSA using GA as linker and subsequently coated to the microtiter plates. In this assay, 100 μl of serially diluted antibody solutions were first incubated with AZXMP coated wells for 1 h at RT.
Wells of microtiter plates were washed three times with PBST (PBS plus 0,05% Tween 20). 100 μL of secondary antibody (diluted Horse Radish Peroxidase (HRP)-labelled anti-Goat IgG solution or anti-IgY antibody) was added and incubated for 30 min at room temperature. After 3 times washing with 250 μl PBST, bound antibody complexes were detected using TMB as substrate. The induced colour reaction was stopped after 5 min using 1M H2SO4 and detected at 450 nm. […]

serum TK = assay: Serum TK measurement with tritium labelled AZT; assay type: biochemical, human; conditions: 16 clinical patient serum samples, 4 h at 37° C.
Procedure: In order to determine if serum TK can use AZT as substrate, an experiment was performed with 16 clinical patient serum samples (20 μl) mixed with 2 μL ^3H-AZT (Ci/mmol Moraveck Inc, USA) and 20 μL reaction mixture containing 10 mM Tris-HCl (pH 7.6), 5 mM ATP, 5 mM MgCl2, 3.5 mM NaF, 2 mM DTT. The assay was performed 4 h at 37° C. and the amount of AZTMP formed was determined by DE 51 ion exchange paper method as described (9). Previous experiments had established that this amount of serum gave a linear reaction during the time period tested.

TK1 = target: T1, TK1 (Homo sapiens, UniProt P04183); conditions: almost the same relative efficiency as Thymidine; cited from earlier work
T1 sequence (P04183 1-234): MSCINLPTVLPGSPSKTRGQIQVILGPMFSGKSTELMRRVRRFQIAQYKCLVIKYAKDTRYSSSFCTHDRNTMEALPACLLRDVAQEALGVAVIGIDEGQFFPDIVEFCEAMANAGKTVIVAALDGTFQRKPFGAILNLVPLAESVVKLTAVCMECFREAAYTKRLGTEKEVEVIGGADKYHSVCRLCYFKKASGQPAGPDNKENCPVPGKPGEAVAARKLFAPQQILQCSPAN

TK2 = target: T2, TK2 (Homo sapiens, UniProt O00142); conditions: cited from earlier work
T2 sequence (O00142 34-265): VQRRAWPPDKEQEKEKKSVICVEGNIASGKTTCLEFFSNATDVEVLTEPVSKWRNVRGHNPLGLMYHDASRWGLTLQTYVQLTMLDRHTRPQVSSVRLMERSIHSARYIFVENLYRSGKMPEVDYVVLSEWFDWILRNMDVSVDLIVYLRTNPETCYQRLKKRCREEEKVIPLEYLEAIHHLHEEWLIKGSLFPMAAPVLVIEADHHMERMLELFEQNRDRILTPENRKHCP

thymidine phosphatase = target: T3, thymidine phosphatase (Homo sapiens, UniProt P19971); conditions: in blood serum or in cell extracts; cited from earlier work
T3 sequence (P19971 11-482): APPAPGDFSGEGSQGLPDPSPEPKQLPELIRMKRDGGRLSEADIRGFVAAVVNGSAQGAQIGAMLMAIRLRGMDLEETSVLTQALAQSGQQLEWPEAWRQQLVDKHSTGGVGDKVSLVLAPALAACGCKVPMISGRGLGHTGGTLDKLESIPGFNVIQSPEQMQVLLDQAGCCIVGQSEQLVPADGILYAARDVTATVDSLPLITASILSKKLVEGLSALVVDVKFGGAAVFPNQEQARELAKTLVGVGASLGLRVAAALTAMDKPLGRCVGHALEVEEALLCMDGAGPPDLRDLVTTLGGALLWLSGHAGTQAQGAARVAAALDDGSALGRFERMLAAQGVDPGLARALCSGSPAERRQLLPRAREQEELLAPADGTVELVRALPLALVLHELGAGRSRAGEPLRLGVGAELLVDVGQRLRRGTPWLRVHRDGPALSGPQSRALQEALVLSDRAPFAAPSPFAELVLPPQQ

[2] = blood serum or cell extracts; cited from earlier work
phosphatases = assay: TK ELISA with UMP in substrate buffer to inhibit phosphatase activity; assay type: biochemical, human; conditions: 1 mM UMP; two of four tested sera
Procedure: A potential problem for the analysis of a kinase activity in patient sera is the presence of phosphatase activity in the same sera to drive the reverse reaction (dephosphorylaUon). One way to inhibit the phosphatase is to include UMP in the substrate buffer to protect AZTMP from being dephosphorylated to AZT.
Substrate buffers containing 172 mM HEPES, 62 mM NaOH, 62 mM MgCl2*6H2O, 34 mM KCl, 142 mM Mannitol, 7,8 mM ATP, 12 mM DTE, and 25 μg/ml AZT were prepared—with variable concentrations UMP, i.e. 0, 0.1, 1 or 5 mM UMP.
A TK1 standard preparation 80 U/L (in heat inactivated fetal calf serum) was diluted in 9 g/L deionized-water, also used as zero standard level, to give further standard levels of 40, 20, 10, 5 and 2,5 U/L, respectively. Four human sera were also assayed. Two sera were from healthy blood donors and two sera from patients monitored with TK REA.
Next the TK reactions were performed by adding 50 μl of substrate buffer together with 50 μL of TK1 standard/or patient serum sample in non-coated microtitre wells.
The plate was incubated for 60 minutes at 37° C. […]
For the detection 50 μl were transferred to a plate which plate was coated with 1 μg/well rabbit anti chicken IgY (Sigma, MO, USA). […] The TMB reaction was stopped with 100 μl acid TMB stop and the absorbance read at 450 nm.

SMILES	competition with immobilised AZXMP for antibody binding [1]	use as substrate by serum TK (serum TK)	substrate quality for TK1 (TK1)	phosphorylation by TK2 (TK2)	substrate for thymidine phosphatase (thymidine phosphatase)	metabolic stability [2]	effect on TK values of tested sera (phosphatases)
Cc1cn([C@H]2C[C@H](N=[N+]=[N-])[C@@H](CO)O2)c(=O)[nH]c1=O [AZT, 3′-azido-3′-deoxythymidine]	not able to compete out AZXMP	can efficiently use AZT as substrate; also recorded: selective, efficient and stable substrates	good substrate for TK1	low capacity to phosphorylate AZT	does not use AZT as a substrate	stable metabolites	–
Cc1cn([C@H]2C[C@H](N=[N+]=[N-])[C@@H](COP(=O)(O)O)O2)c(=O)[nH]c1=O [AZTMP, AZT-5′-monophosphate]	–	–	–	–	–	stable metabolites	–
O=c1ccn([C@@H]2O[C@H](COP(=O)(O)O)[C@@H](O)[C@H]2O)c(=O)[nH]1 [UMP, Uridine monophosphate]	–	–	–	–	–	–	significantly higher TK values
